What was measured:
[1] = molecular target: T1, GST-PPAR beta/delta LBD (Homo sapiens, UniProt Q03181); experiment: Inhibition of agonist L165041-induced recruitment of co-activator peptide C33, TR-FRET; type: biochemical; conditions: 1 μM test substance, increasing concentrations of agonist L165041
T1 construct: GST-PPAR beta/delta LBD (GST=glutathione S-transferase); purchased Invitrogen, Darmstadt, Germany
T1 sequence (Q03181 211-439 limits assumed): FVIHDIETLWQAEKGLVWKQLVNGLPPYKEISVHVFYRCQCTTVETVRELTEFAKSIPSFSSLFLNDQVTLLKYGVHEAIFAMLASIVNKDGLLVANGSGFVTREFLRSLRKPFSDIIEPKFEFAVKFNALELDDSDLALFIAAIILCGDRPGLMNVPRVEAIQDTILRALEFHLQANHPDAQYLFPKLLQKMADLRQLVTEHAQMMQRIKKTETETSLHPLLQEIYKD
Description: (§1) FIG. 3: Inhibition of agonist-induced co-activator peptide binding (A) and inverse agonist compound 1-induced corepressor peptide binding (B) by the substance of this invention compound 5. • The recruitment of the co-activator or corepressor peptide, respectively, is determined in a TR-FRET assay. As co-activator peptide, C33 is utilized, as corepressor peptide SMRT-ID2. The experiment is performed with a constant concentration of 1 μM of the substance of this invention compound 5 and increasing concentrations of the agonist L165041 (A) or the inverse agonist compound 1 (B), respectively.
(§2) C) The inhibition of the recruitment of co-activator peptide C33 known to the expert in this field mediated by PPAR beta/delta agonist L165,041 or the inhibition of the inverse agonist inventive compound 1-mediated binding of the corepressor peptide SMRT-ID2 to GST-PPAR beta/delta LBD by the substance of this invention compound 5 (1 μM) was also determined by TR-FRET measurements. Both is shown in FIGS. 3 A and B in dependency of the concentration of the agonist (A) and the inverse agonist (B), respectively.

[2] = molecular target: T1, GST-PPAR beta/delta LBD; experiment: Inhibition of compound 1-induced binding of corepressor peptide SMRT-ID2, TR-FRET; type: biochemical; conditions: 1 μM test substance, increasing concentrations of inverse agonist compound 1
Description: as §1, §2

COC(=O)c1sccc1S(=O)(=O)Nc1ccc(NC(C)(C)C)cc1OC [compound 5, methyl 3-(N-(4-(tert-butylamino)-2-methoxyphenyl)sulfamoyl)thiophene-2-carboxylate]
inhibition of agonist-induced recruitment of co-activator peptide C33 [1]: prevents | inhibition of compound 1-mediated interaction of LBD with corepressor peptide SMRT-ID2 [2]: prevents

— US20150018411A1, “COMPOUNDS AS PPAR BETA/DELTA INHIBITORS FOR TREATING PPAR BETA/DELTA-MEDIATED DISEASES” (PHILIPPS-UNIVERSITAT MARBURG, priority 2011, published 2015)
